O=P(NC1CCCCC1)(Oc1ccccc1)Oc1ccccc1
solubility (mole fraction)
Conditions | in THF | in acetone | in acetonitrile | in benzene | in chloroform | in dichloromethane | in ethanol | in ethyl acetate | in methanol | in toluene
278.15 K | – | – | – | – | – | 0.0884 | – | – | – | –
283.15 K | – | – | – | – | – | 0.102 | – | – | – | –
288.15 K | – | – | – | – | – | 0.129 | – | – | – | –
293.15 K | 0.168 | 0.0439 | 0.0115 | 0.077 | 0.207 | 0.155 | 0.0358 | 0.0305 | 0.0411 | 0.0539
298.15 K | 0.192 | 0.0611 | 0.0171 | 0.0991 | 0.233 | 0.18 | 0.049 | 0.0395 | 0.0533 | 0.0688
303.15 K | 0.229 | 0.0796 | 0.0248 | 0.127 | 0.266 | 0.216 | 0.0638 | 0.0549 | 0.0702 | 0.0911
308.15 K | 0.269 | 0.109 | 0.0371 | 0.159 | 0.313 | 0.26 | 0.0867 | 0.0721 | 0.0955 | –
313.15 K | 0.318 | 0.134 | 0.0521 | 0.195 | 0.352 | – | 0.116 | 0.0946 | 0.121 | 0.154
318.15 K | 0.372 | 0.187 | 0.0759 | 0.25 | 0.4 | – | 0.153 | 0.128 | 0.161 | –
323.15 K | 0.419 | 0.229 | 0.106 | 0.292 | 0.459 | – | 0.196 | 0.166 | 0.212 | 0.259
328.15 K | 0.504 | 0.271 | 0.148 | 0.374 | 0.518 | – | 0.253 | 0.211 | 0.281 | –
333.15 K | 0.567 | – | 0.191 | 0.457 | – | – | 0.317 | 0.264 | 0.356 | 0.409
338.15 K | – | – | 0.263 | 0.55 | – | – | 0.406 | 0.341 | – | –
343.15 K | – | – | 0.358 | 0.636 | – | – | – | 0.426 | – | 0.611
